The term IC50 denotes the concentration that inhibits the measured activity by half. As usually defined, the melting point is the temperature of the solid-liquid transition.

Read-outs that look alike come from different tables or passages of the source.

This is an account of results in article PMC11792831, “Design and synthesis of doublecortin-like kinase 1 inhibitors and their bioactivity evaluation” (Journal of Enzyme Inhibition and Medicinal Chemistry, 2023).

The target of one series is T1, DCLK1 (Homo sapiens, UniProt O15075).
T1 construct: purchased Eurofins (Belgium), contract assay service
T1 sequence (O15075 1-740): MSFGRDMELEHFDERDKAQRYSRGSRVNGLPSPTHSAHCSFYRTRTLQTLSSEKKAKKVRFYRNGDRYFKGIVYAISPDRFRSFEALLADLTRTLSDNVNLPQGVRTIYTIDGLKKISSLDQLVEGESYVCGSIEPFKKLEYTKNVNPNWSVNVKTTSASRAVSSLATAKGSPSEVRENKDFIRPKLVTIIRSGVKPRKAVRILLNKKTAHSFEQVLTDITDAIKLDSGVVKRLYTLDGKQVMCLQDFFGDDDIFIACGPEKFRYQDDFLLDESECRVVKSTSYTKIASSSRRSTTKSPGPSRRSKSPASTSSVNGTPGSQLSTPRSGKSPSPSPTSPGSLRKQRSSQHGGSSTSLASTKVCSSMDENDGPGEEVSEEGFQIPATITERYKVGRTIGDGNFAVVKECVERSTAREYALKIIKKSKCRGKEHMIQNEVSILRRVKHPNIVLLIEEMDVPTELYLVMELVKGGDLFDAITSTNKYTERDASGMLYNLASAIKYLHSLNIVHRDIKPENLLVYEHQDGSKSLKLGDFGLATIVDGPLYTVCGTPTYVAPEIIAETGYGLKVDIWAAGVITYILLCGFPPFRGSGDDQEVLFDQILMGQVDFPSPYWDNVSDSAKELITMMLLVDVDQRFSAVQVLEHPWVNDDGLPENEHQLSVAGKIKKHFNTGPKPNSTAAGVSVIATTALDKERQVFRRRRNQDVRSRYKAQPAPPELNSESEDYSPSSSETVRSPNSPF
Nature of the series: In vitro DCLK1 kinase activity assay (Eurofins). The series is classed as biochemical. The settings on record: for Selectivity (IC50 of DCLK1/IC50 of LRRK2): ratio of IC50 values; for Selectivity (DCLK1 activity/LRRK2 activity): ratio of remaining activities at 1 uM; for activity at 1 µM: read-out: DCLK1 activity (%). The source says: (§1) Eurofins (Belgium) conducted in vitro DCLK1 and LRRK2 kinase activity assays. Compounds were sent as dry powders to Eurofins.

In another series the target is T2, LRRK2 (Homo sapiens, UniProt Q5S007).
T2 construct: purchased Eurofins (Belgium), contract assay service
Nature of the series: In vitro LRRK2 kinase activity assay (Eurofins). The series is classed as biochemical. The settings on record: for activity at 1 µM: remaining kinase activity at 1 uM compound, 100% = no inhibition, 0% = complete inhibition. The protocol:
All compounds were tested for their kinase inhibitory activity at the concentration of 1 μM. […] Compounds with high activity or good selectivity were selected for further IC50 determination (Table 2).
as §1

A further series deals with HCT116. Nature of the series: In vitro cytotoxicity / anti-proliferation assay (CCK8). Type of series: cell-based. The note with it: Homo sapiens, HCT-116, colorectal cancer cell line HCT116, 72 h. As to the method: To determine whether DCLK1 was required for tumour cell proliferation, the cytotoxicity of compounds was evaluated in colorectal cancer cell line HCT116. HCT116 was treated with compounds for 72 h, and the cell viability was determined using CCK8 assay (Figure 4). The antiproliferative effects of most compounds on HCT116 were correlated with their DCLK1 inhibitory activities, except for compounds D1 and D2. The poor cytotoxicity of compounds D1 and D2 may be attributed to their poor cell membrane permeability due to the negatively charged carboxylates. […] Overall, targeting DCLK1 inhibited the proliferation of HCT116, indicating the importance of DCLK1 in tumour growth.
A 96-well plate (3599, Corning, USA) was inoculated with 100 μL of complete medium containing 10 000 cells, and the experimental, control, and blank groups were established. Three parallel wells were used per concentration. After 10 h, media from the experimental and control groups were replaced with a complete medium containing the indicated concentration of the compound. Cells were incubated for 72 h before 10 μL of CCK8 reagent (CA1210, Solarbio, China) was added to each well and incubated for 1 h. The absorbance at 450 nm was measured with a microplate reader (Tecan, Switzerland). The IC50 was determined using GraphPad Prism 8 and nonlinear regression curve fitting.

Where [1] appears, read: remaining kinase activity at 1 uM compound, 100% = no inhibition, 0% = complete inhibition.

T2 sequence (Q5S007 whole entry): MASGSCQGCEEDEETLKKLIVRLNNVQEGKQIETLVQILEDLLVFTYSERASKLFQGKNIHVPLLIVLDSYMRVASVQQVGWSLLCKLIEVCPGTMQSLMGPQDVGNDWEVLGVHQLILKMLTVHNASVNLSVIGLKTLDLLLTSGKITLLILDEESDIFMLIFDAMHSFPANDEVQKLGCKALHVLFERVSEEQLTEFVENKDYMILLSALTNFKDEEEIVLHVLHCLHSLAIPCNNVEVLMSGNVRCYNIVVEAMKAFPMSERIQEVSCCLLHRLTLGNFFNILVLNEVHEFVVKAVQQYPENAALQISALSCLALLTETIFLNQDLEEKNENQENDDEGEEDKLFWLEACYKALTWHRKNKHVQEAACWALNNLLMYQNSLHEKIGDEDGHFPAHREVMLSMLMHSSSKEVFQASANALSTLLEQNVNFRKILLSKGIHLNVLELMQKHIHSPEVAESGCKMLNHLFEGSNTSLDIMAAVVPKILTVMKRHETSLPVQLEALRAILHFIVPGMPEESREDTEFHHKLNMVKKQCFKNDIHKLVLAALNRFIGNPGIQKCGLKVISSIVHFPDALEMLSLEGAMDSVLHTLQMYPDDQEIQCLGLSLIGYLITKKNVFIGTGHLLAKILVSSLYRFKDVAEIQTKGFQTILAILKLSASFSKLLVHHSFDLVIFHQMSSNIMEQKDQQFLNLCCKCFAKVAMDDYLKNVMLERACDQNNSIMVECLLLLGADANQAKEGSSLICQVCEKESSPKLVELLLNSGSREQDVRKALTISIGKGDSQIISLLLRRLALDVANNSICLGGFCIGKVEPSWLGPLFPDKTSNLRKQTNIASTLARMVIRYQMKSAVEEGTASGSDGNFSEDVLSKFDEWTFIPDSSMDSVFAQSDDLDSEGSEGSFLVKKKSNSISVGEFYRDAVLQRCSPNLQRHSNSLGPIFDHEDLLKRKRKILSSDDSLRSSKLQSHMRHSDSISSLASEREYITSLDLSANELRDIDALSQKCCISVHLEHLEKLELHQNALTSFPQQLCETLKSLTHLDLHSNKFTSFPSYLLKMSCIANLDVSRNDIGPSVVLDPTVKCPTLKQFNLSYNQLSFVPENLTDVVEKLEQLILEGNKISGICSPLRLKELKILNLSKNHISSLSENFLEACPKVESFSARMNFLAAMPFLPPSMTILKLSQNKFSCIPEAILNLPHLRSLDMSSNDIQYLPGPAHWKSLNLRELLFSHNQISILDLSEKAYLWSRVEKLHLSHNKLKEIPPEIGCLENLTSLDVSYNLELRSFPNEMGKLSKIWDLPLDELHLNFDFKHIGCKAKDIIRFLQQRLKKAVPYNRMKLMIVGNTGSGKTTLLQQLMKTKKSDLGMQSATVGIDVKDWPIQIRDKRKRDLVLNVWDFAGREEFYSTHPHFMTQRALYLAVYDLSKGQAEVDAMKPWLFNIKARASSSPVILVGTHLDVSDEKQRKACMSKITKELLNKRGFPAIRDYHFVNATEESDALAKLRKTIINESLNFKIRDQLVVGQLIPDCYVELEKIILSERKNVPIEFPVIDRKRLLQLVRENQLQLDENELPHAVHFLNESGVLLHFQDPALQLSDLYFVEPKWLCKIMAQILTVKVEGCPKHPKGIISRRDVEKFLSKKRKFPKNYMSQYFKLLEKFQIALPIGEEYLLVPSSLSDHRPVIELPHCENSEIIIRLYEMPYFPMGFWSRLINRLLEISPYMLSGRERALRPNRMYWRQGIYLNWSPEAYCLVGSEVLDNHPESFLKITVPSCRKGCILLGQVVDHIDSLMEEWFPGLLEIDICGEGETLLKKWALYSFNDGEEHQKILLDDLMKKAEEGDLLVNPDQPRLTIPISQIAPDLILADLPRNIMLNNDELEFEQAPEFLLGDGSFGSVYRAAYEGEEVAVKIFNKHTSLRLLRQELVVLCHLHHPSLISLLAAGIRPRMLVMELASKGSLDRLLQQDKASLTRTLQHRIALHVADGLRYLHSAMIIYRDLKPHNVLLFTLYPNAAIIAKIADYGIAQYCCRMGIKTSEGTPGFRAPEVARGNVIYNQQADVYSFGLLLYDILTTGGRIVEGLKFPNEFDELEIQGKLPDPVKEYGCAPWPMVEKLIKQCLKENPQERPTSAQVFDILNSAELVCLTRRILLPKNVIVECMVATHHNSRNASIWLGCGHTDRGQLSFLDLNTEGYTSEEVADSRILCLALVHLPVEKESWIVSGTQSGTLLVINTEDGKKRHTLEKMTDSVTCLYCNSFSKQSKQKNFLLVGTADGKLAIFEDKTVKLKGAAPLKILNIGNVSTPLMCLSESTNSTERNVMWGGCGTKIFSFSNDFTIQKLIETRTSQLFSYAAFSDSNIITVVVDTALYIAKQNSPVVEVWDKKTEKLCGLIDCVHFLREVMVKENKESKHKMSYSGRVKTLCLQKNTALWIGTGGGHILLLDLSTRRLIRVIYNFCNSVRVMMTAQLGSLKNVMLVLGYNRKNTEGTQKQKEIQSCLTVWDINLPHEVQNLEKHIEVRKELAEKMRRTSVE

As to `CCOc1cc(N2CCC(O)CC2)ccc1Nc1ncc2c(n1)N(C)c1ccc(F)cc1C(=O)N2C` [Compound A6, 2-((2-Ethoxy-4-(4-hydroxypiperidin-1-yl)phenyl)amino)-8-fluoro-5,11-dimethyl-5,11-dihydro-6H-benzo[e]pyrimido[5,4-b][1,4]diazepin-6-one], the melting point fell in the range of 166 to 167 °C. On DCLK1, the “Selectivity (IC50 of DCLK1/IC50 of LRRK2)” value is on record as less than 0.37 and the “Selectivity (DCLK1 activity/LRRK2 activity)” value amounted to 0.37. The 50% inhibitory concentration (IC50) at DCLK1 (read-out: IC50 of DCLK1) turned out to be 0.365 µM. Besides, on DCLK1 (setting [1]), the activity at 1 µM is 19%. Also, on LRRK2, the IC50 is more than 1 µM and the activity at 1 µM was 51%. The same compound gave an IC50 in the series with HCT116 of 24.7 µM.

For the compound `CCOc1cc(N2CCC(O)CC2)ccc1Nc1ncc2c(n1)N(C)c1ccc(C)cc1C(=O)N2C` [Compound A8, 2-((2-Ethoxy-4-(4-hydroxypiperidin-1-yl)phenyl)amino)-5,8,11-trimethyl-5,11-dihydro-6H-benzo[e]pyrimido[5,4-b][1,4]diazepin-6-one], the melting point is 170 to 171 °C. Besides, on DCLK1, the “Selectivity (DCLK1 activity/LRRK2 activity)” value is on record as 1.10. On DCLK1 (setting [1]), the activity at 1 µM stood at 102%. The activity at 1 µM on LRRK2 was determined as 93%.

As to `CCOc1cc(N2CCC(O)CC2)ccc1Nc1ncc2c(n1)N(C)c1cccc(F)c1C(=O)N2C` [Compound A9, 2-((2-Ethoxy-4-(4-hydroxypiperidin-1-yl)phenyl)amino)-7-fluoro-5,11-dimethyl-5,11-dihydro-6H-benzo[e]pyrimido[5,4-b][1,4]diazepin-6-one], the melting point is 174 to 175 °C. Besides, at DCLK1, the “Selectivity (IC50 of DCLK1/IC50 of LRRK2)” value is on record as less than 0.34 and the “Selectivity (DCLK1 activity/LRRK2 activity)” value was found to be 0.34. Further, the IC50 at DCLK1 (read-out: IC50 of DCLK1) was 0.338 µM. In addition, on DCLK1 (setting [1]), the activity at 1 µM was found to be 17%. At LRRK2, the IC50 is more than 1 µM and the activity at 1 µM worked out at 50%. The half-inhibitory concentration (IC50) in the series on HCT116 was found to be 20.5 µM.

Compound `CCOc1cc(N2CCC(O)CC2)ccc1Nc1ncc2c(n1)N(C)c1cccc(C)c1C(=O)N2C` [Compound A10, 2-((2-Ethoxy-4-(4-hydroxypiperidin-1-yl)phenyl)amino)-5,7,11-trimethyl-5,11-dihydro-6H-benzo[e]pyrimido[5,4-b][1,4]diazepin-6-one] gave a melting point of 184 to 185 °C. For the same compound, at DCLK1, the “Selectivity (DCLK1 activity/LRRK2 activity)” value amounted to 0.98. Moreover, on DCLK1 (setting [1]), the activity at 1 µM was 96%. The activity at 1 µM on LRRK2 amounted to 98%.

In turn, `CCOc1cc(N2CCC(O)CC2)ccc1Nc1ncc2c(n1)N(C)c1ccccc1C(=O)N2CC` [Compound B3, 2-((2-Ethoxy-4-(4-hydroxypiperidin-1-yl)phenyl)amino)-5-ethyl-11-methyl-5,11-dihydro-6H-benzo[e]pyrimido[5,4-b][1,4]diazepin-6-one] came in with a melting point of 162 to 163 °C. On DCLK1, the “Selectivity (IC50 of DCLK1/IC50 of LRRK2)” value is on record as less than 0.32 and the “Selectivity (DCLK1 activity/LRRK2 activity)” value is given as 0.40. For the same compound, the half-maximal inhibitory concentration (IC50) at DCLK1 (read-out: IC50 of DCLK1) worked out at 0.324 µM. Moreover, the activity at 1 µM at DCLK1 (setting [1]) was found to be 28%. On LRRK2, the IC50 was more than 1 µM and the activity at 1 µM amounted to 70%. Further, in the series on HCT116, the midpoint of inhibition, the IC50, lay at 33.2 µM.

`CN1C(=O)c2ccccc2N(C)c2nc(NC3CCC(N4CCC(O)CC4)CC3)ncc21` (stereo not drawn) [Compound C1, 2-((4-(4-Hydroxypiperidin-1-yl)cyclohexyl)amino)-5,11-dimethyl-5,11-dihydro-6H-benzo[e]pyrimido[5,4-b][1,4]diazepin-6-one] registered a melting point of 203 to 204 °C. The “Selectivity (DCLK1 activity/LRRK2 activity)” value on DCLK1 is 0.57. The activity at 1 µM on DCLK1 (setting [1]) was determined as 56%. In addition, the activity at 1 µM at LRRK2 came to 99%.

For `CN1C(=O)c2ccccc2N(C)c2nc(Nc3ccc(N4CCC(O)CC4)nc3)ncc21` [Compound C2, 2-((6-(4-Hydroxypiperidin-1-yl)pyridin-3-yl)amino)-5,11-dimethyl-5,11-dihydro-6H-benzo[e]pyrimido[5,4-b][1,4]diazepin-6-one], the melting point is 189 to 190 °C. For the same compound, the “Selectivity (DCLK1 activity/LRRK2 activity)” value at DCLK1 stood at 2.14. In addition, the activity at 1 µM on DCLK1 (setting [1]) came out at 15%. For the same compound, the activity at 1 µM at LRRK2 came to 7%.

For the compound `COc1cc(NC(=O)CC(=O)O)ccc1Nc1ncc2c(n1)N(C)c1ccccc1C(=O)N2C` [Compound D1, 3-((4-((5,11-Dimethyl-6-oxo-6,11-dihydro-5H-benzo[e]pyrimido[5,4-b][1,4]diazepin-2-yl)amino)-3-methoxyphenyl)amino)-3-oxopropanoic acid], the melting point fell in the range of 187 to 188 °C. In addition, on DCLK1, the “Selectivity (IC50 of DCLK1/IC50 of LRRK2)” value is recorded as less than 0.05 and the “Selectivity (DCLK1 activity/LRRK2 activity)” value amounted to 0.13. In addition, the IC50 at DCLK1 (read-out: IC50 of DCLK1) came to 0.047 µM. Further, the activity at 1 µM at DCLK1 (setting [1]) amounted to 7%. Moreover, at LRRK2, the IC50 was more than 1 µM and the activity at 1 µM was 56%. This compound displayed an IC50 with HCT116 of more than 100 µM.

`CCOc1cc(N2CCC(C)(O)CC2)ccc1Nc1ncc2c(n1)N(C)c1ccccc1C(=O)N2CC` [Compound D9, 2-((2-Ethoxy-4-(4-hydroxy-4-methylpiperidin-1-yl)phenyl)amino)-5-ethyl-11-methyl-5,11-dihydro-6H-benzo[e]pyrimido[5,4-b][1,4]diazepin-6-one]: the melting point is 178 to 179 °C. For the same compound, the “Selectivity (DCLK1 activity/LRRK2 activity)” value on DCLK1 is 0.51. The activity at 1 µM on DCLK1 (setting [1]) turned out to be 26%. Besides, the activity at 1 µM at LRRK2 came to 51%.

For `CCOc1cc(N2CCC(C)(F)CC2)ccc1Nc1ncc2c(n1)N(C)c1ccccc1C(=O)N2CC` [Compound D10, 2-((2-Ethoxy-4-(4-fluoro-4-methylpiperidin-1-yl)phenyl)amino)-5-ethyl-11-methyl-5,11-dihydro-6H-benzo[e]pyrimido[5,4-b][1,4]diazepin-6-one], the melting point fell in the range of 189 to 190 °C. Moreover, the “Selectivity (DCLK1 activity/LRRK2 activity)” value at DCLK1 came out at 0.63. Moreover, at DCLK1 (setting [1]), the activity at 1 µM amounted to 51%. The activity at 1 µM at LRRK2 is 81%.

As to `COc1cc(N2CCC(F)CC2)ccc1Nc1ncc2c(n1)N(C)c1ccccc1C(=O)N2C` [Compound D13, 2-((4-(4-Fluoropiperidin-1-yl)-2-methoxyphenyl)amino)-5,11-dimethyl-5,11-dihydro-6H-benzo[e]pyrimido[5,4-b][1,4]diazepin-6-one], the melting point lay in the range of 160 to 161 °C. For the same compound, the “Selectivity (DCLK1 activity/LRRK2 activity)” value on DCLK1 is recorded as 0.82. Moreover, at DCLK1 (setting [1]), the activity at 1 µM was determined as 59%. On LRRK2, the activity at 1 µM was 72%.

In turn, `COc1cc(N2CCC(C)(C)CC2)ccc1Nc1ncc2c(n1)N(C)c1ccccc1C(=O)N2C` [Compound D16, 2-((4-(4,4-Dimethylpiperidin-1-yl)-2-methoxyphenyl)amino)-5,11-dimethyl-5,11-dihydro-6H-benzo[e]pyrimido[5,4-b][1,4]diazepin-6-one] registered a melting point of 181 to 182 °C. The “Selectivity (DCLK1 activity/LRRK2 activity)” value on DCLK1 was found to be 0.45. For the same compound, the activity at 1 µM on DCLK1 (setting [1]) is 15%. Also, the activity at 1 µM on LRRK2 stood at 33%.

For the compound `CCOc1cc(N2CCC(O)CC2)ccc1Nc1ncc2c(n1)N(C)c1ccccc1C(=O)N2C` [XMD8-92, reference compound], the IC50 on DCLK1 turned out to be 0.161 µM; against LRRK2, 0.219 µM; in the series with HCT116, 16.2 µM. Besides, the values for the activity at 1 µM on DCLK1 and at LRRK2 were 14% and 18%, respectively.
